Measurements: patent publication US20240207282A1, “METHOD OF INCREASING CHAPERONE MEDIATED AUTOPHAGY BY STABILIZING THE INTERACTION OF RETINOIC ACID RECEPTOR-ALPHA AND AN INHIBITOR” (ALBERT EINSTEIN COLLEGE OF MEDICINE, priority 2021, published 2024)

Tests used:
[1] = target: T1, human RARα LBD / NCoR1 peptide (Homo sapiens, UniProt P10276); test: Fluorescence polarization binding assay, RARα LBD with FITC-NCoR1 peptide; conditions: 10 μM compound
T1 construct: human RARα (residues 176-421); His tag; made in house; host or cells: Escherichia coli BL21(DE3)
Experimental: The histidine-tagged ligand binding domain (LBD) of human RARα (residues 176-421) was expressed in Escherichia colic BL21(DE3). Cells were grown at 37° C. in LB medium supplemented with 50 μg/mL kanamycin until OD600 reached about 0.8. Expression of T7 polymerase was induced by addition of isopropyl-b-d-thiogalactoside (IPTG) to a final concentration of 0.8 mM and cells were incubated at 20° C. overnight. Cell cultures were harvested by centrifugation at 8,000×g for 15 mins. The cell pellet from 1 liter of RARα LBD was resuspended in 50 mL lysis buffer (20 mM Tris-HCl pH 8, 500 mM NaCl, 25 mM imidazole) supplemented with ONE COMPLETE, an EDTA-free protease inhibitor tablet (Roche Applied Science). The suspension was lysed using a high-pressure homogenizer and centrifuged at 35,000×g at 4° C. for 45 minutes. […]
The fluorescein-tagged peptide of NCoR1, FITC-Ahx-RLITLADHICQIITQDFAR (FITC-NCoR1) was provided by Genscript at purity>95%. Fluorescence polarization assays (FPA) were performed using established procedures. […] Fluorescence polarization was measured at 30 min on a F200 PRO microplate reader (TECAN) with the excitation wavelength set at 470 nm and emission measured at 530 nm. EC50 values were calculated by nonlinear regression analysis of competitive binding curves using Graphpad Prism software.

NIH3T3 = test: Macroautophagy activity (LC3-II flux, mCherry-GFP-LC3 reporter); assay type: cell-based, mouse; conditions: 20 μM 16 h (LC3 flux)
Experimental: Macroautophagy activity: Cells were transduced with a lentiviral vector expressing mCherry-GPF-LC3^32, fixed and flux determined as the conversion of dual fluorescence puncta (autophagosomes) into only red fluorescent puncta (autolysosomes). Flux was also measured by immunoblot for LC3 in cells incubated for 6 h with 20 mM NH4Cl/100 μM leupeptin, by discounting the intensity of LC3 in non-treated cells from that in cells treated with the inhibitors.

[2] = Pharmacokinetics in mice (plasma and brain); assay type: in vivo, mouse; conditions: mice; for brain to plasma ratio: i.v. or p.o.
Experimental: ICR (CD-1) male mice were fasted at least three hours and water was available ad libitum before the study. Animals were housed in a controlled environment, target conditions: temperature 18 to 29° C., relative humidity 30 to 70%. Temperature and relative humidity was monitored daily. An electronic time controlled lighting system was used to provide a 12 hr light/12 hr dark cycle. 3 mice for each indicated time point were administered 30 mg/Kg CA39 or CA77 by oral gavage or 1 mg/Kg CA39 or CA77 by intravenous injection using 30% PEG-400, 65% D5W (5% dextrose in water), 5% Tween-80 vehicle. Mice were sacrificed, and brain samples were harvested at 0 hr, 0.25 hr, 0.5 hr, 1 hr, 2 hr, 4 hr, 8 hr, 24 hr, and analyzed for CA39 or CA77 levels using LC-MS/MS. Pharmacokinetics parameters were calculated using Phoenix WinNonlin 6.3. Experiments performed at SIMM-SERVIER joint Biopharmacy Laboratory.

T1 sequence (P10276 176-421, other chains not shown): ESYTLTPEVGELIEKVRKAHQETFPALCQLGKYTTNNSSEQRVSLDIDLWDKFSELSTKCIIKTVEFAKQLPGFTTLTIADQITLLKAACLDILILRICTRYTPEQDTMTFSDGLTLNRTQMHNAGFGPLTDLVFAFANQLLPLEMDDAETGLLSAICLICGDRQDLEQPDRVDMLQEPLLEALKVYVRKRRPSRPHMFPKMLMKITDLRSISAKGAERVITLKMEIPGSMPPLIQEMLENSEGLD

Row | SMILES | NCoR1 peptide binding to RARα [1] | effect on macroautophagy (NIH3T3) | blood brain barrier crossing [2] | half-life in brain ([2]; IV 1 mg/kg) [h] | half-life in brain ([2]; PO 30 mg/kg) [h] | half-life in plasma ([2]; PO 30 mg/kg) [h] | brain to plasma ratio [2] | half-life ([2]; male, ICR (CD-1), mouse, plasma, intravenous, 1 mg/kg, route not printed (second pair of values), read-out: half-life in plasma (converted)) [h]
1 | CC(=O)Nc1ccc(C2=Nc3ccc(Cl)cc3OC2)cc1 [CA77] | enhanced NCoR1 peptide binding to RARα | did not have the inhibitory effect on macroautophagy | efficiently crossed the brain blood barrier | 1.8 | 4.2 | 2.2 | high | 
2 | Clc1ccc2c(c1)OCC(c1ccc(-c3ccccc3)cc1)=N2 [CA39] | enhanced NCoR1 peptide binding to RARα | did not have the inhibitory effect on macroautophagy | efficiently crossed the brain blood barrier | 8 | 10 | 7.5 | high | 8.2
